Values quoted from earlier work as cited in patent US20100022462A1, “APPETITE S[…] COLON CLEANSING COMPOSITION” (priority 2008, published 2010).

Tested on: lipase
Details: background statement on the marketed drug; no test conditions given

Compound: CCCCCCCCCCC[C@@H](C[C@@H]1OC(=O)[C@H]1CCCCCC)OC(=O)[C@H](CC(C)C)NC=O [XENICAL, orlistat]
- decreasing dietary fat absorption: 30%
